Experimental data: PubChem BioAssay AID248 (DTP/NCI, 2004)
Where “and” joins values, the source holds several entries; their conditions need not be identical. Equal values may be shown once. Inconclusive results and toxic doses are left out. No stated cut-off is given here; in the data, active means T/C of 150% or more; inactive means T/C below 125%.

Test system: L1210 leukemia ip in BDF1 mice, survival T/C
Test: NCI In Vivo Anticancer Drug Screen. Data for tumor model L1210 Leukemia (intraperitoneal) in B6D2F1 (BDF1) mice
Details: endpoint: mean survival time, higher = longer survival
Summary of the method: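 Each compound was tested against a transplantable tumor grown in mice. The endpoint was survival, with treated animals benchmarked against vehicle controls as a simple ratio.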

[1] = dose: 100.0 mg/kg/injection, schedule: Q01DX009 (ip), vehicle: Klucel (hydroxypropylcellulose) (HPC)
[2] = dose: 200.0 mg/kg/injection, schedule: Q01DX009 (ip), vehicle: Klucel (hydroxypropylcellulose) (HPC)
[3] = dose: 100.0 mg/kg/injection, schedule: Q04DX003 (ip), vehicle: Klucel (hydroxypropylcellulose) (HPC)
[4] = dose: 200.0 mg/kg/injection, schedule: Q04DX003 (ip), vehicle: Klucel (hydroxypropylcellulose) (HPC)
[5] = dose: 400.0 mg/kg/injection, schedule: Q01DX009 (ip), vehicle: Klucel (hydroxypropylcellulose) (HPC)
[6] = dose: 400.0 mg/kg/injection, schedule: Q04DX003 (ip), vehicle: Klucel (hydroxypropylcellulose) (HPC)
[7] = dose: 100.0 mg/kg/injection, schedule: Q04DX002 (ip), vehicle: saline with Tween-80
[8] = dose: 100.0 mg/kg/injection, schedule: Q04DX003 (ip), vehicle: saline with Tween-80
[9] = dose: 200.0 mg/kg/injection, schedule: Q04DX003 (ip), vehicle: saline with Tween-80
[10] = dose: 400.0 mg/kg/injection, schedule: Q04DX003 (ip), vehicle: saline with Tween-80
[11] = dose: 100.0 mg/kg/injection, schedule: Q04DX002 (ip), vehicle: Klucel (hydroxypropylcellulose) (HPC)
[12] = dose: 200.0 mg/kg/injection, schedule: Q04DX002 (ip), vehicle: Klucel (hydroxypropylcellulose) (HPC)
[13] = dose: 400.0 mg/kg/injection, schedule: Q04DX002 (ip), vehicle: Klucel (hydroxypropylcellulose) (HPC)
[14] = dose: 100.0 mg/kg/injection, schedule: Q01DX001 (ip), vehicle: saline
[15] = dose: 200.0 mg/kg/injection, schedule: Q01DX001 (ip), vehicle: saline
[16] = dose: 400.0 mg/kg/injection, schedule: Q01DX001 (ip), vehicle: saline
[17] = dose: 100.0 mg/kg/injection, schedule: Q01DX001 (ip), vehicle: carboxymethylcellulose (CMC)
[18] = dose: 200.0 mg/kg/injection, schedule: Q01DX001 (ip), vehicle: carboxymethylcellulose (CMC)
[19] = dose: 400.0 mg/kg/injection, schedule: Q01DX001 (ip), vehicle: carboxymethylcellulose (CMC)
[20] = dose: 50.0 mg/kg/injection, schedule: Q01DX009 (ip), vehicle: saline with Tween-80
[21] = dose: 100.0 mg/kg/injection, schedule: Q01DX009 (ip), vehicle: saline with Tween-80
[22] = dose: 200.0 mg/kg/injection, schedule: Q01DX009 (ip), vehicle: saline with Tween-80
[23] = dose: 25.0 mg/kg/injection, schedule: Q04DX002 (ip), vehicle: saline with Tween-80
[24] = dose: 50.0 mg/kg/injection, schedule: Q04DX002 (ip), vehicle: saline with Tween-80
[25] = dose: 50.0 mg/kg/injection, schedule: Q01DX001 (ip), vehicle: saline

Measured: T/C

Cc1cc(C(C)(C)C)ccc1SC(=O)Nc1cc([N+](=O)[O-])ccc1Cl
inactive: dose: 100.0 mg/kg/injection, schedule: Q01DX001 (ip), vehicle: gum acacia 94 % of control and 95 % of control | dose: 100.0 mg/kg/injection, schedule: Q01DX009 (ip), vehicle: gum acacia 103 % of control | dose: 100.0 mg/kg/injection, schedule: Q04DX002 (ip), vehicle: gum acacia 99 % of control and 105 % of control | dose: 100.0 mg/kg/injection, schedule: Q04DX003 (ip), vehicle: gum acacia 97 % of control and 108 % of control | dose: 200.0 mg/kg/injection, schedule: Q01DX001 (ip), vehicle: gum acacia 95 % of control and 97 % of control | dose: 200.0 mg/kg/injection, schedule: Q01DX009 (ip), vehicle: gum acacia 102 % of control | dose: 200.0 mg/kg/injection, schedule: Q04DX002 (ip), vehicle: gum acacia 103 % of control and 115 % of control | dose: 200.0 mg/kg/injection, schedule: Q04DX003 (ip), vehicle: gum acacia 96 % of control and 99 % of control | dose: 400.0 mg/kg/injection, schedule: Q01DX001 (ip), vehicle: gum acacia 94 % of control and 95 % of control | dose: 400.0 mg/kg/injection, schedule: Q04DX002 (ip), vehicle: gum acacia 101 % of control and 105 % of control | dose: 400.0 mg/kg/injection, schedule: Q04DX003 (ip), vehicle: gum acacia 101 % of control and 91 % of control

Cc1ccc(OC/C=C/CSc2ccc(Br)cc2)cc1
inactive: dose: 50.0 mg/kg/injection, schedule: Q01DX009 (ip), vehicle: Klucel (hydroxypropylcellulose) (HPC) 103 % of control | dose: 75.0 mg/kg/injection, schedule: Q01DX001 (ip), vehicle: Klucel (hydroxypropylcellulose) (HPC) 106 % of control | [1] 100 % of control | dose: 150.0 mg/kg/injection, schedule: Q01DX001 (ip), vehicle: Klucel (hydroxypropylcellulose) (HPC) 104 % of control | [2] 102 % of control | dose: 300.0 mg/kg/injection, schedule: Q01DX001 (ip), vehicle: Klucel (hydroxypropylcellulose) (HPC) 98 % of control

CC(C)Cc1ccc(C(=O)O)cc1
inactive: [1] 94 % of control | [3] 97 % of control | [2] 94 % of control | [4] 108 % of control | [5] 94 % of control | [6] 102 % of control

CNC(=O)Nc1cc(C)ccc1OC
inactive: [1] 100 % of control | [2] 104 % of control | [5] 109 % of control

CC1(C(=O)O)CCC(C(=O)O)C1(C)C (stereo not given)
inactive: [7] 105 % of control | dose: 200.0 mg/kg/injection, schedule: Q04DX002 (ip), vehicle: saline with Tween-80 100 % of control | dose: 400.0 mg/kg/injection, schedule: Q04DX002 (ip), vehicle: saline with Tween-80 93 % of control

Nc1ncc(Br)cn1
inactive: [8] 105 % of control | [9] 100 % of control | [10] 102 % of control

C=C1c2ccccc2N(CC)C1(COc1ccc(Cl)cc1)OC(=O)c1cccc(Cl)c1 (stereo not given)
inactive: [11] 100 % of control | [12] 95 % of control | [13] 110 % of control

C=CCN1C(=O)NC(=O)C1c1ccsc1 (stereo not given)
inactive: [14] 90 % of control | [15] 93 % of control | [16] 93 % of control

O=C(OCn1ncc2ccc([N+](=O)[O-])cc21)c1ccc(Cl)c(Cl)c1
inactive: [17] 101 % of control | [18] 93 % of control | [19] 95 % of control

CC1(C)C2CCC1(CS(=O)(=O)O)C(=O)C2.[Ag] (stereo not given)
inactive: dose: 3.12 mg/kg/injection, schedule: Q01DX009 (ip), vehicle: saline with Tween-80 92 % of control | dose: 6.25 mg/kg/injection, schedule: Q01DX009 (ip), vehicle: saline with Tween-80 87 % of control | dose: 12.5 mg/kg/injection, schedule: Q01DX009 (ip), vehicle: saline with Tween-80 90 % of control

CCCCCC/C=C/C1CC(=O)OC1=O (stereo not given)
inactive: dose: 25.0 mg/kg/injection, schedule: Q01DX009 (ip), vehicle: saline with Tween-80 100 % of control | [20] 88 % of control | dose: 50.0 mg/kg/injection, schedule: Q04DX003 (ip), vehicle: saline with Tween-80 98 % of control | [21] 100 % of control | [8] 101 % of control and 112 % of control | [22] 97 % of control | [9] 95 % of control and 101 % of control | [10] 103 % of control

CCOC(CCC#N)c1ccc(C)cc1 (stereo not given)
inactive: [8] 113 % of control | dose: 118.0 mg/kg/injection, schedule: Q01DX009 (ip), vehicle: saline with Tween-80 108 % of control | [9] 98 % of control | dose: 235.0 mg/kg/injection, schedule: Q01DX009 (ip), vehicle: saline with Tween-80 97 % of control | [10] 95 % of control

CCOC(=O)C(=CNc1cccc2cnccc12)C(=O)OCC
inactive: [20] 91 % of control | [21] 88 % of control | [22] 88 % of control

CCCCCCCCCC(CCCCCCCCC)NCC(C)OC(=O)c1ccc([N+](=O)[O-])cc1 (stereo not given)
inactive: dose: 75.0 mg/kg/injection, schedule: Q01DX001 (ip), vehicle: acetone 95 % of control | dose: 150.0 mg/kg/injection, schedule: Q01DX001 (ip), vehicle: acetone 95 % of control | dose: 300.0 mg/kg/injection, schedule: Q01DX001 (ip), vehicle: acetone 94 % of control

CC(N)C(=O)NC(CC(=O)O)C(=O)O (stereo not given)
inactive: dose: 25.0 mg/kg/injection, schedule: Q04DX002 (ip), vehicle: saline 98 % of control | dose: 50.0 mg/kg/injection, schedule: Q04DX002 (ip), vehicle: saline 94 % of control | dose: 100.0 mg/kg/injection, schedule: Q04DX002 (ip), vehicle: saline 94 % of control

CC(=O)c1ccc(N=Nc2c(N)nc(N)nc2N)cc1
inactive: [14] 94 % of control | [15] 94 % of control | [16] 94 % of control

C=CCNC(=O)CCl
inactive: dose: 25.0 mg/kg/injection, schedule: Q01DX009 (ip), vehicle: saline 100 % of control | dose: 25.0 mg/kg/injection, schedule: Q04DX003 (ip), vehicle: saline 97 % of control | dose: 50.0 mg/kg/injection, schedule: Q01DX009 (ip), vehicle: saline 99 % of control | dose: 66.0 mg/kg/injection, schedule: Q04DX003 (ip), vehicle: saline 104 % of control | dose: 100.0 mg/kg/injection, schedule: Q01DX009 (ip), vehicle: saline 95 % of control | dose: 100.0 mg/kg/injection, schedule: Q04DX003 (ip), vehicle: saline 106 % of control and 108 % of control | dose: 150.0 mg/kg/injection, schedule: Q04DX003 (ip), vehicle: saline 100 % of control

O=C(Cc1ccccn1)c1ccccc1
inactive: [3] 96 % of control | [4] 96 % of control | [6] 92 % of control

CCCCCCCCCCN=C(N)N/C(N)=N/S(=O)(=O)c1ccc(OCCCCCCCCC)cc1
inactive: [11] 97 % of control | [12] 89 % of control | [13] 89 % of control

CCC1(C)CCC2(C)C(CCC3C(C)(CO)CCCC32O)C1 (stereo not given)
inactive: dose: 12.5 mg/kg/injection, schedule: Q04DX002 (ip), vehicle: saline with Tween-80 96 % of control | [23] 96 % of control | [24] 96 % of control

CCC[CH2][Ge]([CH2]CCC)([CH2]CCC)[N]1C(=O)c2ccccc2C1=O
inactive: dose: 50.0 mg/kg/injection, schedule: Q01DX001 (ip), vehicle: carboxymethylcellulose (CMC) 102 % of control | [25] 100 % of control | [17] 96 % of control | [14] 102 % of control | [18] 103 % of control | [15] 96 % of control | [19] 105 % of control | [16] 108 % of control

CCC1=CC(=O)CCC1
inactive: [25] 96 % of control | [14] 100 % of control | [15] 102 % of control | [16] 108 % of control

O=c1[nH][n+]([O-])cc2c(C(O)=C(O)O)c[nH]c12
inactive: [23] 94 % of control | [24] 98 % of control | [7] 105 % of control
